The results in this text go back to patent US11939311B2, “Acid-labile surfactants” (Promega Corporation, priority 2019, dated 2024).

A value given as a limit tells only on which side of the number the result lay.

Data set [1] in a line: Thermal stability, LCMS (% remaining at 95° C. for 1 h). To be noted: 20 mM DMSO stock diluted 100-times into Tris-based PCR buffer.
Description: To test for thermal stability (% remaining at 95° C. for 1 h), 20 mM stock solutions of example compounds in DMSO were prepared. The stock solutions were diluted 100-times into a Tris-based PCR buffer and heated to 95° C. for 1 hour in a thermocycler. The solutions were then analyzed by LCMS.
(§1) Compound purity and percent remaining were determined by integrating peaks in the total ion chromatogram using LCMS. Compound peaks were identified in negative mode using the molecular weight without sodium. The mobile phase of acetonitrile and water contained 10 mM ammonium acetate using a Synergi Max-RP column, 50×4.6 mm, 2.5 microns.
The nature of data set [2]: Acid stability in 2% TFA, LCMS. To be noted: 3 mM stock diluted 6-times to 2% TFA-NanoPure water.
Description: To test for acid stability, a 3% stock solution (9 mg/300 μL) of each example compound was prepared in NanoPure water. A secondary 3 mM stock solution was prepared in NanoPure water. The secondary stock was diluted 6-times in NanoPure water as a control or diluted 6-times into 2.4% TFA-NanoPure water to 2% TFA-NanoPure water for the acid stability experiment. The solutions were heated to 40° C. for 1 hour and analyzed by LCMS.
as §1
The target in the next data set is T1, Trypsin Gold (Promega) (Sus scrofa, UniProt P00761).
T1 construct: purchased Promega
T1 sequence (P00761 9-231): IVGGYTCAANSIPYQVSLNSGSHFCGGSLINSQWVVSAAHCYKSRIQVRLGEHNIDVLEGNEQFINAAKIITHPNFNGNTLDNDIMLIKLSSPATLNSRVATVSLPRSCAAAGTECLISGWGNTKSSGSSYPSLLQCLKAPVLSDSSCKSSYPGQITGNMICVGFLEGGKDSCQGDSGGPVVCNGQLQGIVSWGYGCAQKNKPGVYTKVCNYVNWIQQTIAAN
Description: Trypsin compatibility with the trypsin-specific substrate BAEE. The data set is classed as biochemical. The conditions noted are these: 0.1% surfactant, 200 μM BAEE; for Slope: 0.2 μg Trypsin Gold, absorbance at 253 nm every minute over 10 minutes; for % Trypsin Activity: compared to control of trypsin without surfactant. The procedure:
Compatibility of the different compounds with trypsin was tested using a trypsin-specific substrate, benzoyl-L-arginine ethyl ester hydrochloride (BAEE). 4% stock solutions (12 mg/300 μL) of example compounds were prepared in NanoPure water. The stock solution was diluted 40 times in 50 mM ammonium bicarbonate, pH 7.8 (0.1% final) with 200 μM of BAEE. The entire sample was transferred to an individual well in a 96-well UV-compatible microplate. The absorbance of the sample was measured at 253 nm using a TECAN M1000 plate reader. After 2 minutes, 0.2 μg of Trypsin Gold (Promega) was added to the reaction and absorbance at 253 nm was monitored every minute over a period of 10 minutes. The resulting activity measurement was compared to the control of trypsin without surfactant present. Trypsin is the most commonly used protease for the digestion of protein mass spectrometry samples. The results from this experiment indicate that the compounds have a minimal effect on trypsin activity and can be used during the sample digestion step.

Consider `CCCCCOC(C)(COC(=O)NCC(O)CS(=O)(=O)[O-])OCCCCC.[Na+]` (stereo not shown) [RBK-0171], for which the “% remaining after 1 hour at 95° C. in Polymerase Buffer C” value (“% remaining after 1 hour” below) in data set [1] is recorded as 13.1%.
Turning to `CC(COC(=O)NCCCS(=O)(=O)[O-])(OCCC(F)(F)C(F)(F)C(F)(F)C(F)(F)C(F)(F)C(F)(F)F)OCCC(F)(F)C(F)(F)C(F)(F)C(F)(F)C(F)(F)C(F)(F)F.[Na+]` [ZZ-0849, Sodium 3-(((2,2-bis((3,3,4,4,5,5,6,6,7,7,8,8,8-tridecafluorooctyl)oxy)propoxy)carbonyl)amino)propane-1-sulfonate], the “% remaining after 1 h at 40° C. in 2% TFA” value (“% remaining … in 2% TFA” below) in data set [2] is 2%. Moreover, the “% remaining after 1 hour” value in data set [1] is recorded as more than 99%.
Consider `CCCCCOC(C)(COC(=O)NCCCS(=O)(=O)[O-])OCCCCC.[Na+]` [RBK-0168], for which the “% remaining after 1 hour” value in data set [1] is recorded as 5.4%.
With `CCCCCCCC1(CCCCCCC)OCC(COC(=O)NCC(O)CS(=O)(=O)[O-])O1.[Na+]` (stereo not shown) [RBK-0173], the “% remaining … in 2% TFA” value in data set [2] was “Not soluble”. For the same molecule, in data set [1], the “% remaining after 1 hour” value came out at 81.2%.
As to `CCCCCCCCCCCCC1OCC(COC(=O)NCCCS(=O)(=O)[O-])O1.[Na+]` (stereo not shown) [JRW-1574, Sodium 3-((((2-dodecyl-1,3-dioxolan-4-yl)methoxy)carbonyl)amino)propane-1-sulfonate], the “% remaining … in 2% TFA” value in data set [2] is given as 4%. Moreover, the “% remaining after 1 hour” value in data set [1] amounted to 92.8%.
Turning to `CCCCCCCCCCC1OCC(COC(=O)NCC(O)CS(=O)(=O)[O-])O1.[Na+]` (stereo not shown) [HW-0801, Sodium 3-((((2-decyl-1,3-dioxolan-4-yl)methoxy)carbonyl)amino)-2-hydroxypropane-1-sulfonic Acid], the “% remaining … in 2% TFA” value in data set [2] is listed as “Not soluble”. Further, the “% remaining after 1 hour” value in data set [1] worked out at 94.1%.
The corresponding values for `CCCCCCCCCCC1OCC(COC(=O)NCCCS(=O)(=O)[O-])O1.[Na+]` (stereo not shown) [JRW-1564, Sodium 3-((((2-decyl-1,3-dioxolan-4-yl)methoxy)carbonyl)amino)propane-1-sulfonate] are 1% and 95.2%.
For the molecule `CC(COC(=O)NCCCS(=O)(=O)[O-])(OCCC(F)(F)C(F)(F)C(F)(F)C(F)(F)F)OCCC(F)(F)C(F)(F)C(F)(F)C(F)(F)F.[Na+]` [ZZ-0842, Sodium 3-(((2,2-bis((3,3,4,4,5,5,6,6,6-nonafluorohexyl)oxy)propoxy)carbonyl)amino)propane-1-sulfonate], the “% remaining … in 2% TFA” value in data set [2] was determined as 0%. Moreover, the “% remaining after 1 hour” value in data set [1] was more than 99%.
Regarding `CCCCCCCCCCCC1(C)OCC(COC(=O)NCC(O)CS(=O)(=O)[O-])O1.[Na+]` (stereo not shown) [HW-0797, Sodium 2-hydroxy-3-((((2-methyl-2-undecyl-1,3-dioxolan-4-yl)methoxy)carbonyl)amino)propane-1-sulfonic Acid], in data set [2], the “% remaining … in 2% TFA” value was “Not soluble”. In data set [1], the “% remaining after 1 hour” value is on record as 83.6%.
As to `CCCCCCCCCCCC1(C)OCC(COC(=O)Nc2ccc(N(CCCS(=O)(=O)[O-])CCCS(=O)(=O)[O-])cc2)O1.[Na+].[Na+]` (stereo not shown) [SL-1735, Sodium 3,3′-((4-((((2-methyl-2-undecyl-1,3-dioxolan-4-yl)methoxy)carbonyl)amino)phenyl)azanediyl)bis(propane-1-sulfonate)], the “% remaining … in 2% TFA” value in data set [2] is given as 0%. Also, the “% remaining after 1 hour” value in data set [1] is 93.6%.
Turning to `CCCCCOC(C)(COC(=O)Nc1ccc(N(CCCS(=O)(=O)[O-])CCCS(=O)(=O)[O-])cc1)OCCCCC.[Na+].[Na+]` [CS-0853, Sodium 3,3′-((4-(((2,2-bis(pentyloxy)propoxy)carbonyl)amino)phenyl)azanediyl) bis(propane-1-sulfonate)], the “% remaining … in 2% TFA” value in data set [2] worked out at 42%. Besides, in data set [1], the “% remaining after 1 hour” value turned out to be 2.5%.
The corresponding values for `CCCCCCCCCCCC1OCC(COC(=O)NCC(O)CS(=O)(=O)[O-])O1.[Na+]` (stereo not shown) [HW-0805, Sodium 2-hydroxy-3-((((2-undecyl-1,3-dioxolan-4-yl)methoxy)carbonyl)amino)propane-1-sulfonate] are “Not soluble” and 94.2%.
With `CC(COC(=O)NCC(O)CS(=O)(=O)[O-])(OCCC(F)(F)C(F)(F)C(F)(F)C(F)(F)F)OCCC(F)(F)C(F)(F)C(F)(F)C(F)(F)F.[Na+]` (stereo not shown) [ZZ-0850, Sodium 3-(((2,2-bis((3,3,4,4,5,5,6,6,6-nonafluorohexyl)oxy)propoxy)carbonyl)amino)-2-hydroxypropane-1-sulfonate], in data set [2], the “% remaining … in 2% TFA” value worked out at 0%. Also, the “% remaining after 1 hour” value in data set [1] worked out at 90.5%.
For the molecule `CCCCCCCCCCCC1OCC(COC(=O)NCCCS(=O)(=O)[O-])O1.[Na+]` (stereo not shown) [JRW-1565, Sodium 3-((((2-undecyl-1,3-dioxolan-4-yl)methoxy)carbonyl)amino)propane-1-sulfonate], the “% remaining … in 2% TFA” value in data set [2] came to 1%. Moreover, in data set [1], the “% remaining after 1 hour” value was found to be 95.7%.
Regarding `CCCCCCCCCCCC1OCC(COC(=O)Nc2ccc(N(CCCS(=O)(=O)[O-])CCCS(=O)(=O)[O-])cc2)O1.[Na+].[Na+]` (stereo not shown) [CS-0843, Sodium 3,3′-((4-((((2-undecyl-1,3-dioxolan-4-yl)methoxy)carbonyl)amino)phenyl)-azanediyl)bis(propane-1-sulfonate)], in data set [2], the “% remaining … in 2% TFA” value is recorded as 22%. Besides, the “% remaining after 1 hour” value in data set [1] is reported as more than 99%.
Turning to `CCCCCCCC1(CCCCCCC)OCC(COC(=O)NCCCS(=O)(=O)[O-])O1.[Na+]` (stereo not shown) [RBK-0170], at Trypsin Gold (Promega), the Slope was determined as 0.0107 and the “% Trypsin Activity” value is recorded as 74%. Further, the “% remaining … in 2% TFA” value in data set [2] is recorded as 0%. Besides, the “% remaining after 1 hour” value in data set [1] is 88.3%.
Take `CCCCCCC1(CCCCCC)OCC(COC(=O)NCCCS(=O)(=O)[O-])O1.[Na+]` (stereo not shown) [TU-1179, Sodium 3-((((2,2-dihexyl-1,3-dioxolan-4-yl)methoxy)carbonyl)amino)propane-1-sulfonate]: in data set [2], the “% remaining … in 2% TFA” value is 0%. Further, the “% remaining after 1 hour” value in data set [1] is 102.9%.
For `CC(COC(=O)NCC(O)CS(=O)(=O)[O-])(OCCC(F)(F)C(F)(F)C(F)(F)C(F)(F)C(F)(F)C(F)(F)F)OCCC(F)(F)C(F)(F)C(F)(F)C(F)(F)C(F)(F)C(F)(F)F.[Na+]` (stereo not shown) [ZZ-0846, Sodium 3-(((2,2-bis((3,3,4,4,5,5,6,6,7,7,8,8,8-tridecafluorooctyl)oxy)propoxy)carbonyl)amino)-2-hydroxypropane-1-sulfonate], the “% remaining … in 2% TFA” value in data set [2] came out at 2%. The “% remaining after 1 hour” value in data set [1] is 93.4%.
With `CCCCCC1(CCCCC)OCC(COC(=O)NCCCS(=O)(=O)[O-])O1.[Na+]` (stereo not shown) [JZ-0177, Sodium 3-((((2,2-dipentyl-1,3-dioxolan-4-yl)methoxy)carbonyl)amino)propane-1-sulfonate], in data set [2], the “% remaining … in 2% TFA” value is listed as 0%. Also, in data set [1], the “% remaining after 1 hour” value stood at 99.4%.
For the molecule `CCCCCCCCCCC1(C)OCC(COC(=O)NCCCS(=O)(=O)[O-])O1.[Na+]` (stereo not shown) [AF-0045, Sodium 3-((((2-decyl-2-methyl-1,3-dioxolan-4-yl)methoxy)carbonyl)amino)propane-1-sulfonate], the “% remaining … in 2% TFA” value in data set [2] was 0%. Besides, the “% remaining after 1 hour” value in data set [1] was 89.3%.
Take `CCCCCCOC(C)(COC(=O)NCCCS(=O)(=O)[O-])OCCCCCC.[Na+]` [RBK-0169]: the “% remaining after 1 hour” value in data set [1] came to 6.0%.
For `CCCCCC1(CCCCC)OCC(COC(=O)NCC(O)CS(=O)(=O)[O-])O1.[Na+]` (stereo not shown) [JZ-0164, Sodium 3-((((2,2-dipentyl-1,3-dioxolan-4-yl)methoxy)carbonyl)amino)-2-hydroxypropane-1-sulfonate], in data set [2], the “% remaining … in 2% TFA” value came out at 0%. The “% remaining after 1 hour” value in data set [1] is 93.8%.
For `CCCCCCCCCCCC1(C)OCC(COC(=O)NCCCS(=O)(=O)[O-])O1.[Na+]` (stereo not shown) [JRW-1573, Sodium 3-((((2-methyl-2-undecyl-1,3-dioxolan-4-yl)methoxy)carbonyl)amino)propane-1-sulfonate], on Trypsin Gold (Promega), the Slope was determined as 0.0133 and the “% Trypsin Activity” value came out at 92%. In data set [2], the “% remaining … in 2% TFA” value was found to be 0%. The “% remaining after 1 hour” value in data set [1] came out at 95.0%.
On to `CCCCCCOC(C)(COC(=O)NCC(O)CS(=O)(=O)[O-])OCCCCCC.[Na+]` (stereo not shown) [RBK-0172], for which, in data set [1], the “% remaining after 1 hour” value is reported as 8.2%.
With `CCCCCCCCCCCCC1OCC(COC(=O)NCC(O)CS(=O)(=O)[O-])O1.[Na+]` (stereo not shown) [HW-0807, Sodium 3-((((2-dodecyl-1,3-dioxolan-4-yl)methoxy)carbonyl)amino)-2-hydroxypropane-1-sulfonic Acid], the “% remaining … in 2% TFA” value in data set [2] is “Not soluble”. Moreover, in data set [1], the “% remaining after 1 hour” value is reported as “Not soluble”.
Consider `CCCCCCC1(CCCCCC)OCC(COC(=O)NCC(O)CS(=O)(=O)[O-])O1.[Na+]` (stereo not shown) [JZ-0179, Sodium 3-((((2,2-dihexyl-1,3-dioxolan-4-yl)methoxy)carbonyl)amino)-2-hydroxypropane-1-sulfonate], for which, in data set [2], the “% remaining … in 2% TFA” value came to 100%. The “% remaining after 1 hour” value in data set [1] worked out at 83.9%.
